Test systems include PC-3; Hs-578T; OVCAR-5; SK-MEL-5; HT-29; HL-60; UACC-62; RPMI-8226; SNB-75; OVCAR-8; MDA-MB-231; HCT-116; DMS-273; U-251; NCI-H23; K562; OVCAR-3; SK-MEL-28.
Holding throughout (test): NCI-60 cell line screen, 48 h

The structures appear in SMILES notation.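 Briefly, cells in 96-well plates were exposed to five compound concentrations for 48 h, and endpoints were estimated by linear interpolation. GI50 marks 50% less growth.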 Activity calls are given as the source filed them. No stated cut-off is given here; in the data, active = GI50 up to about 1.1 µM and inactive = higher.

As to `COc1cccc2c1C(CO)N1C(C#N)C3CC(C(=O)O)C(C1C2)N3C` (stereo not drawn), the GI50 was 0.331 µM (active) in the assay with PC-3; 0.238 µM (active) in the assay on Hs-578T; 2.85 µM (inactive) in the assay with OVCAR-5; 1.69 µM (inactive) in the assay with SK-MEL-5; 1.64 µM (inactive) in the assay with HT-29; 1.52 µM (inactive) with HL-60. For the same molecule, the GI50 is 1.16 µM (inactive) with UACC-62; 1.15 µM (inactive) with RPMI-8226; 1.6 µM (inactive) in the assay on SNB-75; 1.68 µM (inactive) in the assay with OVCAR-8; 0.15 µM (active) in the assay with MDA-MB-231; 1.69 µM (inactive) in the assay with HCT-116. In addition, the GI50 with DMS-273 was 2.77 µM (inactive); with U-251 it was 1.52 µM (inactive); in the assay with NCI-H23, 1.57 µM (inactive); in the assay with K562 it was 1.63 µM (inactive); in the assay with OVCAR-3, 1.23 µM (inactive); in the assay with SK-MEL-28 it was 1.56 µM (inactive).

The values above are taken from ChEMBL document CHEMBL1201862, “PubChem BioAssay data set” (2004).
